Where two headings read alike, the source gives them in different places.
What was measured:
[1] = system: influenza strain A/VN/1203/2004 (H5N1); assay: microbe, parasite or virus in culture; assay type: cell-based, Influenza A virus (H5N1)
[2] = system: Madin Darby Canine Kidney (MDCK) cells; assay: cells; assay type: cell-based; settings: read-out: IC50 (toxicity)
[3] = Influenza A virus, H5N1, MDCK, 72 h, read-out: H5N1 EC50 (@ 50% Via)
[4] = Influenza A virus, H5N1, MDCK, 72 h, read-out: H5N1 EC50 (Inf Pt)
[5] = read-out: H5N1 EC50 (@ 50% Via)

Row | Structure (SMILES) | EC50 [1, 3] | EC50 [1, 4] | IC50 ([2]; Canis lupus familiaris, MDCK) | EC50 [1, 5] | IC50 [2] | EC50 ([1]; read-out: H5N1 EC50 (Inf Pt))
1 | COc1ccc(C2NC(=O)NC3=C2CN(C(=O)OCCO)c2ccccc23)cc1Br (stereo not shown) [compound 25575] | 4.7 µM | – | – | – | – | –
2 | Cc1ccc(-c2nc(O)nc3c2COc2ccccc2-3)cc1C [compound 22106] | > 50 µM | > 50 µM | > 50 µM | – | – | –
3 | CC1CC2=C(NC(=O)NC2c2ccc3c(c2)OCO3)c2ccccc21 (stereo not shown) [compound 22342] | 0.72 µM | 0.39 µM | > 50 µM | – | – | –
4 | COc1ccc(-c2nc(=O)[nH]c3c2CCc2ccccc2-3)cc1Br [compound 22710] | > 50 µM | > 50 µM | > 50 µM | – | – | –
5 | CCOC(=O)CCC(=O)N1CC2=C(NC(=O)NC2c2ccc(OC)c(Br)c2)c2ccccc21 (stereo not shown) [compound 25484] | > 20 µM | – | – | – | – | –
6 | O=C1NC2=C(Cc3ccccc32)C(c2ccc3c(c2)OCO3)N1 (stereo not shown) [compound 22126] | > 50 µM | > 50 µM | > 50 µM | – | – | –
7 | CCOC(=O)N1CC2=C(NC(=O)NC2c2ccc(OC)c(Br)c2)c2ccccc21 (stereo not shown) [compound 25577] | > 20 µM | > 20 µM | – | – | – | –
8 | COc1ccc(C2NC(=O)NC3=C2Cc2ccccc23)cc1 (stereo not shown) [compound 22127] | > 50 µM | > 50 µM | > 50 µM | – | – | –
9 | COc1cc(-c2nc(O)nc3c2CCc2ccccc2-3)cc(OC)c1OC [compound 22116] | > 50 µM | > 50 µM | > 50 µM | – | – | –
10 | Nc1cccc(C2NC(=O)NC3=C2CCc2ccccc23)c1 (stereo not shown) [compound 22348] | > 50 µM | > 50 µM | > 50 µM | – | – | –
11 | COc1cccc2c1CCc1c(-c3ccc(C)cc3)nc(O)nc1-2 [compound 22124] | – | > 50 µM | – | > 50 µM | > 50 µM | –
12 | CCOC(=O)CCC(=O)N1CC2=C(NC(=O)NC2c2ccc(OC)c(Br)c2)c2ccccc21 (stereo not shown) [compound 25578] | – | > 10 µM | – | > 20 µM | – | –
13 | COc1ccc(C2NC(=O)NC3=C2CN(C(=O)c2ccncc2)c2ccccc23)cc1Br (stereo not shown) [compound 23208] | > 40 µM | > 40 µM | > 40 µM | – | – | –
14 | Oc1nc(-c2ccc3c(c2)OCO3)c2c(n1)-c1ccccc1CCC2 [compound 22118] | > 50 µM | > 50 µM | > 50 µM | – | – | –
15 | Cc1cccc(C2NC(=O)NC3=C2CCCc2ccccc23)c1 (stereo not shown) [compound 22345] | 18.8 µM | 13.6 µM | > 50 µM | – | – | –
16 | COc1cccc(C2NC(=O)NC3=C2CCc2c(OC)cccc23)c1 (stereo not shown) [compound 22111] | > 50 µM | > 50 µM | > 50 µM | – | – | –
17 | COc1ccc(C2NC(=O)NC3=C2CN(C(=O)CN)c2ccccc23)cc1Br (stereo not shown) [compound 24716] | 3.1 µM | 3.1 µM | > 40 µM | – | – | –
18 | COc1ccc(C2NC(=O)NC3=C2COc2ccccc23)cc1 (stereo not shown) [compound 22129] | > 50 µM | > 50 µM | > 50 µM | – | – | –
19 | O=C1NC2=C(CCc3ccccc32)C(c2ccc3ccccc3c2)N1 (stereo not shown) [compound 22346] | ≥ 55 µM | > 50 µM | > 50 µM | – | – | –
20 | COc1ccc(C2NC(=O)NC3=C2CN(S(C)(=O)=O)c2ccccc23)cc1Br (stereo not shown) [compound 23207] | 29 µM | 31 µM | > 40 µM | – | – | –
21 | O=C1NC2=C(CCc3ccccc32)C(c2ccc(Cl)c(Cl)c2)N1 (stereo not shown) [compound 22130] | – | – | > 50 µM | – | – | –
22 | O=C1NC2=C(CCc3ccccc32)C(c2cc(Br)c(O)c(Br)c2)N1 (stereo not shown) [compound 22702] | > 40 µM | > 40 µM | > 40 µM | – | – | –
23 | Cc1cccc(C2NC(=O)NC3=C2CCc2ccccc23)c1 (stereo not shown) [compound 22081] | – | 0.55 µM | > 50 µM | – | – | 0.52 µM
24 | O=C1NC2=C(CCc3ccccc32)C(c2cccc3c2OCO3)N1 (stereo not shown) [compound 22411] | > 50 µM | > 50 µM | > 50 µM | – | – | –
25 | COc1cc(OC)cc(C2NC(=O)NC3=C2CCc2ccccc23)c1 (stereo not shown) [compound 22518] | 4.7 µM | 3.4 µM | > 50 µM | – | – | –
26 | Cn1c2c(c(-c3ccc4c(c3)OCO4)nc1=O)CCc1ccccc1-2 [compound 22403] | 5.2 µM | 1.7 µM | > 50 µM | 5.7 µM | – | 2 µM

Row | Structure (SMILES) | EC50 [1, 3] | EC50 [1, 4] | IC50 ([2]; Canis lupus familiaris, MDCK) | EC50 [1, 5] | IC50 [2] | EC50 ([1]; read-out: H5N1 EC50 (Inf Pt))
27 | Cc1cccc(-c2nc(O)nc3c2COc2ccccc2-3)c1 [compound 22110] | 10.4 µM | 8.6 µM | > 50 µM | – | – | –
28 | Oc1nc(-c2ccc3c(c2)OCO3)c2c(n1)-c1ccccc1CC2 [compound 22122] | – | > 50 µM | – | > 50 µM | > 50 µM | –
29 | COc1ccc(C2NC(=O)N(O)C3=C2CCc2ccccc23)cc1Br (stereo not shown) [compound 22708] | 1.1 µM | > 0.95 µM | > 50 µM | – | – | –
30 | COc1cc(C2NC(=O)NC3=C2CSc2ccccc23)ccc1F (stereo not shown) [compound 22519] | – | 6.5 µM | > 50 µM | – | – | –
31 | COc1ccc(-c2nc(O)nc3c2Cc2ccccc2-3)cc1 [compound 22128] | > 50 µM | > 50 µM | > 50 µM | – | – | –
32 | COc1ccc(C2NC(=O)NC3=C2CCc2ccccc23)cc1O (stereo not shown) [compound 22407] | > 50 µM | > 50 µM | > 50 µM | – | – | –
33 | COc1ccc(C2NC(=O)NC3=C2CCN(C(C)=O)c2ccccc23)cc1Br (stereo not shown) [28000A] | > 20 µM | – | – | – | – | –
34 | COc1cccc(-c2nc(O)nc3c2CCc2c(OC)cccc2-3)c1 [compound 22112] | > 50 µM | > 50 µM | > 50 µM | – | – | –
35 | COc1cc(C2NC(=O)NC3=C2CCc2ccccc23)ccc1O (stereo not shown) [compound 22408] | > 50 µM | > 50 µM | > 50 µM | – | – | –
36 | COc1cccc2c1CCc1c(-c3ccc(C)c(C)c3)nc(O)nc1-2 [compound 22114] | 13.5 µM | – | > 50 µM | 9.1 µM | – | –
37 | COc1cccc2c1CCc1c(-c3ccc(C)cc3)nc(O)nc1-2 [compound 22088] | – | – | > 50 µM | 15.4 µM | – | –
38 | COc1ccc(C2NC(=O)Nc3c2cnc2ccccc32)cc1Br (stereo not shown) [compound 23273] | 2.1 µM | 1.6 µM | > 40 µM | – | – | –
39 | Nc1nc(-c2ccc3c(c2)OCO3)c2c(n1)-c1ccccc1CC2 [compound 22120] | > 50 µM | > 50 µM | > 50 µM | – | – | –
40 | CCN(CC)CC(=O)N1CC2=C(NC(=O)NC2c2ccc(OC)c(Br)c2)c2ccccc21 (stereo not shown) [compound 24719] | 1.2 µM | 1.2 µM | > 40 µM | – | – | –
41 | O=C1NC2=C(CCc3ccccc32)C(c2ccc3c(c2)OCCO3)N1 (stereo not shown) [compound 22343] | 45.7 µM | 31.9 µM | > 50 µM | – | – | –
42 | COc1nc(-c2ccc3c(c2)OCO3)c2c(n1)-c1ccccc1CC2 [compound 22402] | 8.4 µM | 5.2 µM | > 50 µM | 14.5 µM | – | 5.7 µM
43 | COc1ccc(C2NC(=O)NC3=C2CN(C)c2ccccc23)cc1Br (stereo not shown) [compound 23101] | > 6 µM | > 6 µM | > 40 µM | – | – | –
44 | Oc1nc(-c2ccc3c(c2)OCO3)c2c(n1)-c1ccccc1CC2 [compound 22085] | – | – | > 50 µM | < 0.48 µM | – | –
45 | Cc1ccc(C2NC(=O)NC3=C2CCc2ccccc23)cc1C (stereo not shown) [compound 22082] | – | – | > 50 µM | – | – | –
46 | COc1ccc2c(c1)CCC1=C2NC(=O)NC1c1ccc2c(c1)OCO2 (stereo not shown) [compound 22344] | > 50 µM | > 50 µM | > 50 µM | – | – | –
47 | COc1cc(C2NC(=O)NC3=C2CCc2ccccc23)cc(OC)c1OC (stereo not shown) [compound 22115] | > 50 µM | > 50 µM | > 50 µM | – | – | –
48 | COc1ccc(C2NC(=O)NC3=C2CN(C(=O)CNCCN2CCOCC2)c2ccccc23)cc1Br (stereo not shown) [compound 25011] | 3.9 µM | 3.9 µM | > 40 µM | – | – | –
49 | COc1ccc(C2NC(=O)NC3=C2CCN(C(=O)COC(C)=O)c2ccccc23)cc1Br (stereo not shown) [28002A] | > 20 µM | – | – | – | – | –
50 | COCCOC(=O)N1CC2=C(NC(=O)NC2c2ccc(OC)c(Br)c2)c2ccccc21 (stereo not shown) [compound 25576] | > 20 µM | – | – | – | – | –
51 | COc1ccc(C2NC(=O)NC3=C2CCN(C(=O)CO)c2ccccc23)cc1Br (stereo not shown) [28001A] | > 20 µM | – | – | – | – | –
